In patent US12012392B2, “Sulfonamide carboxamide compounds” (Inflazome Limited, priority 2017, dated 2024):

Legend:
NLRP3 [1] = target: T1, NLRP3 (Homo sapiens, UniProt Q96P20); assay: THP-1 cells pyroptosis assay; assay type: cell-based; design: Seed THP-1 cells (25,000 cells/well) containing 1.0 μg/ml LPS; host or cells: THP-1 cells, LPS-primed, nigericin-stimulated; settings: LPS 1 μg/ml, nigericin 5 μM, resazurin read-out
Procedure: THP-1 cells (ATCC #TIB-202) were grown in RPMI containing L-glutamine (Gibco #11835) supplemented with 1 mM sodium pyruvate (Sigma #S8636) and penicillin (100 units/ml)/streptomycin (0.1 mg/ml) (Sigma #P4333) in 10% Fetal Bovine Serum (FBS) (Sigma #F0804). The cells were routinely passaged and grown to confluency (˜10^6 cells/ml). On the day of the experiment, THP-1 cells were harvested and resuspended into RPMI medium (without FBS). The cells were then counted and viability (>90%) checked by Trypan blue (Sigma #T8154). Appropriate dilutions were made to give a concentration of 625,000 cells/ml. To this diluted cell solution was added LPS (Sigma #L4524) to give a 1 μg/ml Final Assay Concentration (FAC). 40 μl of the final preparation was aliquoted into each well of a 96-well plate. The plate thus prepared was used for compound screening.
The following method step-by-step assay was followed for compound screening. • 1. Seed THP-1 cells (25,000 cells/well) containing 1.0 μg/ml LPS in 40 μl of RPMI medium (without FBS) in 96-well, black walled, clear bottom cell culture plates coated with poly-D-lysine (VWR #734-0317) • 2. Add 5 μl compound (8 points half-log dilution, with 10 μM top dose) or vehicle (DMSO 0.1% FAC) to the appropriate wells • 3. Incubate for 3 hrs at 37° C. and 5% CO2 • 4. Add 5 μl nigericin (Sigma #N7143) (FAC 5 μM) to all wells • 5. Incubate for 1 hr at 37° C. and 5% CO2 • 6. At the end of the incubation period, spin plates at 300×g for 3 mins and remove supernatant • 7. Then add 50 μl of resazurin (Sigma #R7017) (FAC 100 μM resazurin in RPMI medium without FBS) and incubate plates for a further 1-2 hrs at 37° C. and 5% CO2 • 8. Plates were read in an Envision reader at Ex 560 nm and Em 590 nm • 9. IC50 data is fitted to a non-linear regression equation (log inhibitor vs response-variable slope 4-parameters) 96-Well Plate Map

NLRP3 [2] = target: T1, NLRP3; assay: Human whole blood IL1β release assay; assay type: cell-based; design: Plate out 80 μl of whole blood containing 1 μg/ml of LPS; from tissue; host or cells: human whole blood from healthy donors, LPS-primed, nigericin-stimulated; settings: LPS 1 μg/ml, nigericin 10 μM, IL-1β AlphaLisa, read-out: HWB IC50
Procedure: For systemic delivery, the ability to inhibit NLRP3 when the compounds are present within the bloodstream is of great importance. For this reason, the NLRP3 inhibitory activity of a number of compounds in human whole blood was investigated in accordance with the following protocol.
Human whole blood in Li-heparin tubes was obtained from healthy donors from a volunteer donor panel. • 1. Plate out 80 μl of whole blood containing 1 μg/ml of LPS in 96-well, clear bottom cell culture plate (Corning #3585) • 2. Add […] compound (8 points half-log dilution with 10 μM top dose) or vehicle (DMSO 0.1% FAC) to the appropriate wells • 3. Incubate for 3 hrs at 37° C., 5% CO2 • 4. Add 10 μl Nigericin (Sigma #N7143) (10 μM FAC) to all wells • 5. Incubate for 1 hr at 37° C., 5 CO2 • 6. At the end of the incubation period, spin plates at 300×g for 5 mins to pellet cells and remove 20 μl of supernatant and add to 96-well v-bottom plates for […] analysis (note: these plates containing the supernatants can be stored at −80° C. to be analysed at a later date) • 7. IL-1β was measured according to the manufacturer protocol (Perkin Elmer-AlphaLisa IL-1 Kit AL220F-5000) • 8. IC50 data is fitted to anon-linear regression equation (log inhibitor vs response-variable slope 4-parameters)

T1 sequence (Q96P20 whole entry): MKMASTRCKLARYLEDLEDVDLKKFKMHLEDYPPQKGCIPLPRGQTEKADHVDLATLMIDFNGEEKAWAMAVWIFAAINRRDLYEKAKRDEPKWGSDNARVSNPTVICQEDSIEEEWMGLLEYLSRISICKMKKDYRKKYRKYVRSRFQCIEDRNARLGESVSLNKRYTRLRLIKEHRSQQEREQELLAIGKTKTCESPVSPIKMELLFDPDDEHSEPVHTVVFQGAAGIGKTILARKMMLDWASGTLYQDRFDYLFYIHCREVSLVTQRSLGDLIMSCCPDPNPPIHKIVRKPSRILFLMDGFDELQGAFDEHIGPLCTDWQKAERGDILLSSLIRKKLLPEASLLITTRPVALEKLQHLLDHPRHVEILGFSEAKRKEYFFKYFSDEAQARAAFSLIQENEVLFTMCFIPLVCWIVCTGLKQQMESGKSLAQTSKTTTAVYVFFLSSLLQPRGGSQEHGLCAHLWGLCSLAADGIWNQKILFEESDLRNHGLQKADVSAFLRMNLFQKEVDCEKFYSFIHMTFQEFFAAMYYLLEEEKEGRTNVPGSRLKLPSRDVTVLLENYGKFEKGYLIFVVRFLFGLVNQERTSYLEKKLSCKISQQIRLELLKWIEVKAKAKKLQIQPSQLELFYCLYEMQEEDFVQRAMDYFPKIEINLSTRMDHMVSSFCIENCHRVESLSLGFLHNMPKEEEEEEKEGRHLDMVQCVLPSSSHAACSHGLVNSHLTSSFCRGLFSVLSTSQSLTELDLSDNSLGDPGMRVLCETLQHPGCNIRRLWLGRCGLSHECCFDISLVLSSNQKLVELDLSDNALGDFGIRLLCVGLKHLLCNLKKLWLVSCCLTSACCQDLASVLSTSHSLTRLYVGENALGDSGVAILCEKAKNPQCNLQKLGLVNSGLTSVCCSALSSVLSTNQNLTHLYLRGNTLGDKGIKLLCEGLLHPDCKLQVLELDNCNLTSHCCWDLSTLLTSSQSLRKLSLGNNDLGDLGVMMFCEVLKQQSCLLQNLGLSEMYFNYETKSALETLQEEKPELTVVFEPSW

SMILES	IC50 (NLRP3 [1]) [nM]	IC50 (NLRP3 [2]) [nM]
CC(C)n1nc(S(=O)(=O)NC(=O)Nc2c3c(cc4c2CCC4)CCC3)cc1C1(O)COC1 [Example 47, N-((1,2,3,5,6,7-Hexahydro-s-indacen-4-yl)carbamoyl)-5-(3-hydroxyoxetan-3-yl)-1-isopropyl-1H-pyrazole-3-sulfonamide]	40 to 160	400 to 800
N#Cc1cc(-c2ccc3c(c2NC(=O)NS(=O)(=O)c2ccn(C4CCOC4)n2)CCC3)ccn1 (centres unmarked) [Example 91]	< 40	< 400
COc1cc(-c2cc(F)cc(C(C)C)c2NC(=O)NS(=O)(=O)c2cc(C3(OC)COC3)n(C)n2)ccn1 [Example 40, N-((4-Fluoro-2-isopropyl-6-(2-methoxypyridin-4-yl)phenyl)carbamoyl)-5-(3-methoxyoxetan-3-yl)-1-methyl-1H-pyrazole-3-sulfonamide]	160 to 640	< 400
C[C@@H](O)Cn1cnc(S(=O)(=O)NC(=O)Nc2c3c(cc4c2CCC4)CCC3)n1 [Example 36, (R)—N-((1,2,3,5,6,7-Hexahydro-s-indacen-4-yl)carbamoyl)-1-(2-hydroxypropyl)-1H-1,2,4-triazole-3-sulfonamide]	160 to 640	400 to 800
COc1cc(-c2ccc3c(c2NC(=O)NS(=O)(=O)c2ccn(C4CCOC4)n2)CCC3)ccn1 (centres unmarked) [Example 97]	40 to 160	< 400
CC(C)c1cc(F)cc(-c2cccnc2)c1NC(=O)NS(=O)(=O)c1ccn(C[C@@H](C)O)n1 [Example 37, (R)—N-((4-Fluoro-2-isopropyl-6-(pyridin-3-yl)phenyl)carbamoyl)-1-(2-hydroxypropyl)-1H-pyrazole-3-sulfonamide]	160 to 640	< 400
CC(C)c1cc(Cl)cc(C(C)C)c1NC(=O)NS(=O)(=O)c1cc(C(=O)N(C)CCO)n(C)n1 [Example 82, 3-(N-((4-Chloro-2,6-diisopropylphenyl)carbamoyl)sulfamoyl)-N-(2-hydroxyethyl)-N,1-dimethyl-1H-pyrazole-5-carboxamide]	40 to 160	800 to 1600
O=C(Nc1c2c(cc3c1CCC3)CCC2)NS(=O)(=O)c1ccn(CC2CCCO2)n1 (single isomer, unassigned) [Example 5]	40 to 160	800 to 1600
COc1cc(-c2ccc3c(c2NC(=O)NS(=O)(=O)c2ccn(C[C@@H](C)O)n2)CCC3)ccn1 [Example 94]	< 40	< 400
CC(C)c1cc(Cl)cc(C(C)C)c1NC(=O)NS(=O)(=O)c1ccn(CC(C)(C)O)n1 [Example 19, N-((4-Chloro-2,6-diisopropylphenyl)carbamoyl)-1-(2-hydroxy-2-methylpropyl)-1H-pyrazole-3-sulfonamide]	640 to 2560	3200 to 10000
O=C(Nc1c2c(cc3c1CCC3)CCC2)NS(=O)(=O)c1ccn(CCO)n1 [Example 8, N-((1,2,3,5,6,7-Hexahydro-s-indacen-4-yl)carbamoyl)-1-(2-hydroxyethyl)-1H-pyrazole-3-sulfonamide]	40 to 160	< 400
CC(C)c1cc(F)cc(C(C)C)c1NC(=O)NS(=O)(=O)c1ccn(CC(C)(C)O)n1 [Example 18, N-((4-Fluoro-2,6-diisopropylphenyl)carbamoyl)-1-(2-hydroxy-2-methylpropyl)-1H-pyrazole-3-sulfonamide]	640 to 2560	1600 to 3200
O=C(Nc1c2c(cc3c1CCC3)CCC2)NS(=O)(=O)c1ccn(C2CCCC2O)n1 (racemic) [Example 22, N-((1,2,3,5,6,7-Hexahydro-s-indacen-4-yl)carbamoyl)-1-(2-hydroxycyclopentyl)-1H-pyrazole-1-sulfonamide]	40 to 160	400 to 800
COc1cc(-c2ccc3c(c2NC(=O)NS(=O)(=O)c2ccn(CC(C)(C)O)n2)CCC3)ccn1 [Example 96]	< 40	< 400
CC(C)c1cc(Cl)cc(C(C)C)c1NC(=O)NS(=O)(=O)c1ccn(C2CCOCC2)n1 [Example 32, N-((4-Chloro-2,6-diisopropylphenyl)carbamoyl)-1-(tetrahydro-2H-pyran-4-yl)-1H-pyrazole-3-sulfonamide]	640 to 2560	3200 to 10000
COc1cc(-c2ccc3c(c2NC(=O)NS(=O)(=O)c2ccn(CC(C)(C)OC)n2)CCC3)ccn1 [Example 95]	< 40	< 400
CC[C@@H](O)Cn1ccc(S(=O)(=O)NC(=O)Nc2c3c(cc4c2CCC4)CCC3)n1 [Example 25, (R)—N-((1,2,3,5,6,7-Hexahydro-s-indacen-4-yl)carbamoyl)-1-(2-hydroxybutyl)-1H-pyrazole-3-sulfonamide]	160 to 640	800 to 1600
COC1(c2cc(S(=O)(=O)NC(=O)Nc3c4c(cc5c3CCC5)CCC4)nn2C(C)(C)C)COC1 [Example 39, 1-(tert-Butyl)-N-((1,2,3,5,6,7-hexahydro-s-indacen-4-yl)carbamoyl)-5-(3-methoxyoxetan-3-yl)-1H-pyrazole-3-sulfonamide]	40 to 160	1600 to 3200
CCOC1(c2cc(S(=O)(=O)NC(=O)Nc3c4c(cc5c3CCC5)CCC4)nn2C)COC1 [Example 41, 5-(3-Ethoxyoxetan-3-yl)-N-((1,2,3,5,6,7-hexahydro-s-indacen-4-yl)carbamoyl)-1-methyl-1H-pyrazole-3-sulfonamide]	40 to 160	400 to 800
CC(C)(O)Cn1ccc(S(=O)(=O)NC(=O)Nc2c3c(c(F)c4c2CCC4)CCC3)n1 [Example 106]	< 40	400 to 800
C[C@@H](O)Cn1cc(S(=O)(=O)NC(=O)Nc2c3c(cc4c2CCC4)CCC3)nn1 [Example 103]	160 to 640	800 to 1600
C[C@@H](O)Cn1ccc(S(=O)(=O)NC(=O)Nc2c(-c3ccnc(C#N)c3)ccc3c2CCC3)n1 [Example 92]	< 40	< 400
O=C(Nc1c2c(cc3c1CCC3)CCC2)NS(=O)(=O)c1ccn(CC2CCCO2)n1 (single isomer, unassigned) [Example 4]	40 to 160	3200 to 10000
COC1(c2cc(S(=O)(=O)NC(=O)Nc3c(-c4cccnc4)cc(F)c4c3CCC4)nn2C)COC1 [Example 35, N-((7-Fluoro-5-(pyridin-3-yl)-2,3-dihydro-1H-inden-4-yl)carbamoyl)-5-(3-methoxyoxetan-3-yl)-1-methyl-1H-pyrazole-3-sulfonamide]	160 to 640	800 to 1600
COc1cc(-c2ccc3c(c2NC(=O)NS(=O)(=O)c2cc(C4(OC)COC4)n(C)n2)CCC3)ccn1 [Example 98]	< 40	< 400
O=C(Nc1c2c(cc3c1CCC3)CCC2)NS(=O)(=O)c1ccn(C2CCOCC2)n1 [Example 31, N-((1,2,3,5,6,7-Hexahydro-s-indacen-4-yl)carbamoyl)-1-(tetrahydro-2H-pyran-4-yl)-1H-pyrazole-3-sulfonamide]	160 to 640	1600 to 3200
COc1cc(-c2ccc3c(c2NC(=O)NS(=O)(=O)c2ccn(C(C)(C)CN4CC(OC)C4)n2)CCC3)ccn1 [Example 90]	< 40	< 400
Cn1nc(S(=O)(=O)NC(=O)Nc2c3c(cc4c2CCC4)CCC3)cc1CC(C)(C)O [Example 50, N-((1,2,3,5,6,7-Hexahydro-s-indacen-4-yl)carbamoyl)-5-(2-hydroxy-2-methylpropyl)-1-methyl-1H-pyrazole-3-sulfonamide]	40 to 160	800 to 1600
